Source: patent publication US11571480B2, “Multi-ligand drug conjugates and uses thereof” (priority 2015, dated 2023)
Square brackets hold non-standard residues; d marks the D form. Peptide text beside a SMILES is read from it. * marks the point of attachment. Dolaproine = CO[C@@H]([C@@H]1CCCN1)[C@@H](C)C(=O)O; Dil = CC[C@H](C)[C@H](NC)[C@@H](CC(=O)O)OC; X1 = C[C@@H](N*)[C@@H](O)c1ccccc1; NMeV = CN[C@H](C(=O)O)C(C)C

Assays:
[1] = test system: ovarian cancer cell SKOV3; assay: Cytotoxicity test of conjugate LDC10B; type: cell-based, human; conditions: SKOV3, Incubation Time 30 min
Description: (§1) Culture medium: RPMI 1640 Medium, no folic acid
(§2) 1) human nasopharyngeal cancer cell line KB, melanoma cell line A375, human lung cancer cell H1299, chronic myeloid leukemia cell line K562, human lung cancer cell H460, ovarian cancer cell SKOV3, breast cancer cell line HCC1954, human gastric cancer cell N87, and human breast cancer cell SK-BR-3 were incubated at 37° C., 5% CO2 in RPMI 1640 medium containing 10% fetal bovine serum, the cells were passaged every 2-3 days.
(§3) 2) human nasopharyngeal cancer cell line KB, melanoma cell line A375, human lung cancer cell H1299, chronic myeloid leukemia cell line K562, human lung cancer cell H460, ovarian cancer cell SKOV3, breast cancer cell line HCC1954, human gastric cancer cell N87, and human breast cancer cell SK-BR-3 were plated at 1×10^3 cells per well (96-well plate) and incubated for 8-12 h at 37° C., 5% CO2.
(§4) 3) Stock solutions of LDC conjugates or controls were prepared in PBS solution. 100 μL/well of serially diluted LDC conjugates or controls was added to the test cells in the plates and incubated for 15-30 min at 37° C., 5% CO2. The culture medium in the wells was then removed by aspiration and the test cells were incubated in fresh culture medium without conjugates (150 μL/well) for 2-3 days at 37° C., 5% CO2.
(§5) 4) CellTiter 96® Aqueous One Solution Cell Proliferation Assay (Promega) was added to each well to measure the amount of […] cells, and each plate was incubated in an incubator for 1 h at 37° C., 5% CO2.
(§6) 5) Each plate was read at 490 nm on a microplate reader, and the cell survivals were compared for test cells with or without the treatment of LDC conjugates. The LDC drug concentrations that are required for 50% cell death (IC50 values) were determined.

[2] = test system: breast cancer cell line HCC1954; assay: Cytotoxicity test of conjugate LDC10B; type: cell-based, human; conditions: HCC1954, Incubation Time 30 min
Description: as §1, §2, §3, §4, §5, §6

melanoma cell line A375 [3] = assay: Cytotoxicity test of conjugate LDC1013; type: cell-based; conditions: A375, incubated 15-30 min, then 2-3 days
Description: as §1
(§7) 1) human nasopharyngeal cancer cell line KB, melanoma cell line A375, and human lung cancer cell H460 were incubated at 37° C., 5% CO2 in RPMI 1640 medium containing 10% fetal bovine serum, the cells were passaged every 2-3 days.
(§8) 2) human nasopharyngeal cancer cell line KB, melanoma cell line A375, and human lung cancer cell H460 were plated at 1×10^3 cells per well (96-well plate) and incubated for 8-12 h at 37° C., 5% CO2.
as §4, with “control” for “controls”, “the” for “the test”, “plate” for “plates”
(§9) 4) CellTiter 96® Aqueous One Solution Cell Proliferation Assay (Promega) was added to each well to measure the amount of […] cells, and the plate was incubated in an incubator for 1 h at 37° C., 5% CO2.
(§10) 5) the plate was read at 490 nm on a microplate reader, and the cell survivals were compared for cells with or without the treatment of LDC conjugates. The LDC drug concentrations that are required for 50% cell death (IC50 values) were determined.

[4] = test system: human lung cancer cell H460; assay: Cytotoxicity test of conjugate LDC1013; type: cell-based; conditions: H460, incubated 15-30 min, then 2-3 days
Description: as §1, §7, §8
as §4, with “control” for “controls”, “the” for “the test”, “plate” for “plates”
as §9, §10

[5] = test system: human nasopharyngeal cancer cell line KB; assay: Cytotoxicity test of conjugate LDC1013; type: cell-based; conditions: incubated 15-30 min, then 2-3 days
Description: as §1, §7, §8
as §4, with “control” for “controls”, “the” for “the test”, “plate” for “plates”
as §9, §10

melanoma cell line A375 [6] = assay: Cytotoxicity test of conjugate LDC10B; type: cell-based; conditions: A375, Incubation Time 15 min
Description: as §1, §2, §3, §4, §5, §6

[7] = test system: human gastric cancer cell N87; assay: Cytotoxicity test of conjugate LDC10B; type: cell-based; conditions: N87, Incubation Time 30 min
Description: as §1, §2, §3, §4, §5, §6

[8] = test system: chronic myeloid leukemia cell line K562; assay: Cytotoxicity test of conjugate LDC10B; type: cell-based; conditions: K562, Incubation Time 30 min
Description: as §1, §2, §3, §4, §5, §6

[9] = test system: human lung cancer cell H460; assay: Cytotoxicity test of conjugate LDC10B; type: cell-based; conditions: H460, Incubation Time 30 min
Description: as §1, §2, §3, §4, §5, §6

[10] = test system: human breast cancer cell SK-BR-3; assay: Cytotoxicity test of conjugate LDC10B; type: cell-based; conditions: SK-BR-3, Incubation Time 30 min
Description: as §1, §2, §3, §4, §5, §6

[11] = test system: human nasopharyngeal cancer cell line KB; assay: Cytotoxicity test of conjugate LDC10B; type: cell-based; conditions: Incubation Time 15 min
Description: as §1, §2, §3, §4, §5, §6

[12] = test system: human lung cancer cell H1299; assay: Cytotoxicity test of conjugate LDC10B; type: cell-based; conditions: H1299, Incubation Time 30 min
Description: as §1, §2, §3, §4, §5, §6

**Q.** Which IC50 [1] does the source give for `CC[C@H](C)[C@@H]([C@@H](CC(=O)N1CCC[C@H]1[C@H](OC)[C@@H](C)C(=O)N[C@H](C)[C@@H](O)c1ccccc1)OC)N(C)C(=O)[C@@H](NC(=O)[C@@H](NC)C(C)C)C(C)C` [MMAE] (H-[NMeV]V[Dil][Dolaproine]-X1) here?
**A.** 0.62 nM

**Q.** And the IC50 [2]?
**A.** 0.45 nM

**Q.** And the IC50 (melanoma cell line A375 [3])?
**A.** 85 nM

**Q.** What about the IC50 [4] of the same molecule?
**A.** 37 nM

**Q.** What about the IC50 [5] of the same molecule?
**A.** 20 nM

**Q.** What about the IC50 (melanoma cell line A375 [6]) of the same molecule?
**A.** 100 nM

**Q.** And the IC50 [7]?
**A.** 0.68 nM

**Q.** What about the IC50 [8] of the same molecule?
**A.** 0.54 nM

**Q.** What about the IC50 [9] of the same molecule?
**A.** 0.77 nM

**Q.** What about the IC50 [10] of the same molecule?
**A.** 0.52 nM

**Q.** And the IC50 [11]?
**A.** 89 nM

**Q.** And the IC50 [12]?
**A.** 0.86 nM
